What was measured:
[1] = tested on: foamed C57BL/6J mouse-derived macrophages; experiment: ApoE secretion-promoting effect in foamed mouse peritoneal macrophages (Western blotting of supernatants); format: cell-based; conditions: BO-653 added at 3 and 10 μmol/L, 24 hours of culture, anti-mouse ApoE antibody, FIG. 1
Description: (§1) 4.05 w/v % thioglycollate-elicited intraperitoneally exuded cells were prepared from C57BL/6J and ApoE-deficient mice. The cells were inoculated on 12-well plate at 1.0×10^6 cells/well. The cells were cultured at 37° C. under 5 vol % CO2. After 3 hours of culture, the culture medium was changed to a fresh one to remove inadhesive cells, leaving mouse-peritoneal macrophages in each of the wells. Next day, the mouse-peritoneal macrophages were cultured in a medium containing 50 μg of protein per mL of acetylated LDL for 24 hours to form foam cells.
(§2) To the wells containing the foamed C57BL/6J mouse-derived macrophages, 4,6-di-t-butyl-2,2-dipentyl-5-hydroxy-2,3-dihydrobenzofuran (BO-653) was added to final concentrations of 0, 3 and 10 μmol/L. After 24 hours of culture, the supernatants were collected to prepare samples for SDS-PAGE.
The samples were subjected to 10 w/v % SDS-PAGE. Following the SDS-PAGE, the bands were transferred onto nitrocellulose papers using semi-drying method and blocked with TBS containing 10 w/v % skim milk and 0.1 vol % Tween-20. Rabbit anti-mouse ApoE-antibody (#K23100R, BIODESIGN) and peroxidase-labeled anti-rabbit IgG antibody (#7071-1, Cell Signaling TECHNOLOGY) were used as the first and secondary antibodies, respectively. ApoE was detected using chemoluminescence method (PIERCE).

[2] = tested on: foamed C57BL/6J mouse-derived macrophages; experiment: Intracellular cholesterol-removing effect in foamed macrophages (enzymatic total cholesterol measurement); format: cell-based; conditions: for Cholesterol Reduction (%) Means: 24 hours, relative to the vehicle (0 μmol/L = 100.0)
Description: as §1, §2
On the other hand, the foamed macrophages which were cultured in the presence of BO-653 and harvested at the same time as the collection of the supernatants were extracted with a mixed solvent of hexane/2-propanol (3:2 v/v) to obtain lipids. Then, the total amount of cholesterol in the lipids was measured using the enzymatic method described by Yoshiki Kawabe et al., “Oxidation-Induced Aggregation of Rabbit Low-Density Lipoprotein by Azo Initiator”, Achieves of Biochemistry and Biophysics 310, 489-496 (1994). We regarded the total amount of cholesterol as intracellular cholesterol content of the macrophages.

C57BL/6J mice = experiment: ApoE increasing effect in mouse serum (SDS-PAGE of lipoprotein-containing fractions); format: in vivo; conditions: high fat diet containing 0.65% BO-653 for 5 weeks versus high fat diet with no BO-653, FIG. 2
Description: Seven-week-old C57BL/6J mice were divided into first group of three and second group of four. The animals of the first and second groups were fed a high fat diet containing no BO-653 and 0.65% BO-653, respectively. After 5 weeks of diet initiation, the animals were anesthetized with ether and their blood was individually drawn from vena cava descendens. Serum samples were prepared from the drawn blood and 100 μL of each of the samples was placed into a tube. To the tube, 900 μL of sodium bromide solution having 1.256 density was added, and the tube was centrifuged in TL-100 desk type ultracentrifuge at 100,000 rpm for 20 hours using TLA-100.2 rotor. Lipoprotein-containing fraction thus obtained was collected and treated with 10 w/v % trichloroacetic acid solution. The precipitate was collected and dissolved into 80 μL of solution for SDS-PAGE. 10 μL of the solution was subjected to 15 w/v % SDS-PAGE and the gels were stained with Coomassie brilliant blue. By comparing the bands with molecular weight markers, ApoE was identified.

CCCCCC1(CCCCC)Cc2c(cc(C(C)(C)C)c(O)c2C(C)(C)C)O1 [BO-653, 4,6-di-t-butyl-2,2-dipentyl-5-hydroxy-2,3-dihydrobenzofuran]
saccharified-ApoE expression in culture supernatant [1]: increased saccharified-ApoE expression
Cholesterol Reduction (%) Means ([2]; BO-653 3 μmol/L): 132.6%
Cholesterol Reduction (%) Means ([2]; BO-653 10 μmol/L): 145.9%
intracellular cholesterol content of macrophages ([2]; treatment with BO-653, 24 hours, result in words): decrease in intracellular cholesterol content
ApoE production in serum lipoprotein-containing fraction (C57BL/6J mice): increased ApoE production

— patent US20040242678A1, “Apolipo protein e secretion promoters” (priority 2001, published 2004)
